The text below walks through data of patent US4225472A, “Truncated somatostatin analogs” (American Home Products Corporation, priority 1979, dated 1980).

For assay [1], the system named is growth hormone (GH). Put plainly: Arginine-stimulated Nembutal-anesthetized rats, blood growth hormone by radioimmunoassay. It counts as in vivo, rat. Conditions: albino male rats, dose 100 μg/kg subcutaneous, arginine 10 min later, blood 5 min after arginine; control 488 ± 82; *p<0.05. The protocol: (§1) The product of the preceding examples illustrates the selective activity of the compounds of this invention for growth hormone and glucagon suppression in the following standard procedure:
(§2) Albino male rats are administered Nembutal intraperitoneally at a dose of 50 milligrams per kilogram. Fifteen minutes later a subcutaneous injection of the test compound or physiological saline (control) is administered. Ten minutes later 0.5 milliliters of arginine (300 milligrams per milliliter, pH 7.2) is injected into the heart. Five minutes after receipt of the arginine the rats are decapitated and blood is collected into trasylol-EDTA. An appropriate aliquot is assayed for growth hormone (GH), insulin, and glucagon by radioimmunoassay.

In assay [2] the test system is insulin. The experiment in a line: Arginine-stimulated Nembutal-anesthetized rats, blood insulin by radioimmunoassay. The format is in vivo, rat. The note with it: albino male rats, dose 100 μg/kg subcutaneous, arginine 10 min later, blood 5 min after arginine; control 74 ± 4. As to the method: as §1, §2
Assay [3] deals with glucagon. Put plainly: Arginine-stimulated Nembutal-anesthetized rats, blood glucagon by radioimmunoassay. The format is in vivo, rat. The note with it: albino male rats, dose 100 μg/kg subcutaneous, arginine 10 min later, blood 5 min after arginine; control 133 ± 13; *p<0.05. The protocol:
as §1, §2

The test system of assay [4] is growth hormone (GH). The experiment in a line: Duration of activity, growth hormone level at 2 and 4 hours. The note with it: dose 1,000 μg/kg, *p<0.01. It counts as in vivo. From the text:
The duration of activity of the product of Example 2 was as follows: […]

Positions of bridges follow the written chain, without caps; N, C: chain ends. Non-standard residues stand in square brackets, D forms with d. Residues, ends and D or L forms follow the SMILES beside them.

For the molecule `C[C@@H](O)[C@@H]1NC(=O)[C@H](CCCCN)NC(=O)[C@@H](Cc2c[nH]c3ccccc23)NC(=O)[C@H](Cc2c[nH]c3ccccc23)NC(=O)[C@H](Cc2ccccc2)NC(=O)[C@@H](N)CSSC[C@H](C(=O)O)NC(=O)[C@H](Cc2ccccc2)NC1=O` [Example 2, L-Cysteinyl-L-phenylalanyl-L-tryptophyl-D-tryptophyl-L-lysyl-L-threonyl-L-phenylalanyl-D-cysteine cyclic (1-8) disulfide] (H-CFW[dW]KTF[dC]-OH; disulfide 1-8), the GH came out at 191 ± 60 ng/mL in assay [1]; 60 ± 6 ng/mL in assay [4] (2 hours, control 369 ± 60); 75 ± 10 ng/mL in assay [4] (4 hours, control 354 ± 68). This molecule returned an INS in assay [2] of 69 ± 4 μU/ml. Moreover, the GLUN in assay [3] came to 60 ± 12 pg/mL.
